# Reference: patent USRE47141E1, “Methods of treating fibrosis, cancer and vascular injuries” (EWHA University—Industry Collaboration Foundation, priority 2010, dated 2018)
# pIC50: −log10 of the molar value.
# Tests used:
# [1] = system: TGF-β1-induced Smad2/3 nuclear translocation in MCF10A cells; test: Immunofluorescence assay; assay type: cell-based; settings: TGF-β1 2 ng/mL, 1 μM, 2 h
# Description: MCF10A cells were plated on the cover glass in 6-well plate at 2×10^5 cells/well. After 12 h, when cells were attached, 10% FBS medium was changed to 0.5% FBS medium. […] Then, cells were fixed with 4% formaldehyde solution for 30 min at room temperature and quenched with quenching solution (50 mM NH4Cl in PBS) for 15 min. After being washed three times with PBS, cells were incubated with blocking/permeabilization solution (1% BSA and 0.1% Triton X-100 in PBS) for 1 h at room temperature and incubated with anti-Smad2/3 antibody (BD Biosciences, Franklin Lakes, N.J., USA) overnight at 4° C. Fluorescence was visualized by Cy3-conjugated goat anti-mouse IgG (Jackson ImmunoResearch Laboratories, Bar Harbor, Me., USA). Nuclei of the same cells were stained with DAPI solution. Cells were analyzed using the LSM 510 META laser confocal microscopy system (Carl Zeiss, Germany).
# [2] = system: bleomycin (BLM)-treated mice; test: Anti-fibrotic effect on bleomycin-induced lung fibrosis model; assay type: in vivo
# VEGF-R3 = VEGF-R3 (Homo sapiens (Human), UniProt P35916); test: Kinase selectivity profiling; assay type: biochemical
# VEGF-R3, sequence (P35916 25-1363, species assumed): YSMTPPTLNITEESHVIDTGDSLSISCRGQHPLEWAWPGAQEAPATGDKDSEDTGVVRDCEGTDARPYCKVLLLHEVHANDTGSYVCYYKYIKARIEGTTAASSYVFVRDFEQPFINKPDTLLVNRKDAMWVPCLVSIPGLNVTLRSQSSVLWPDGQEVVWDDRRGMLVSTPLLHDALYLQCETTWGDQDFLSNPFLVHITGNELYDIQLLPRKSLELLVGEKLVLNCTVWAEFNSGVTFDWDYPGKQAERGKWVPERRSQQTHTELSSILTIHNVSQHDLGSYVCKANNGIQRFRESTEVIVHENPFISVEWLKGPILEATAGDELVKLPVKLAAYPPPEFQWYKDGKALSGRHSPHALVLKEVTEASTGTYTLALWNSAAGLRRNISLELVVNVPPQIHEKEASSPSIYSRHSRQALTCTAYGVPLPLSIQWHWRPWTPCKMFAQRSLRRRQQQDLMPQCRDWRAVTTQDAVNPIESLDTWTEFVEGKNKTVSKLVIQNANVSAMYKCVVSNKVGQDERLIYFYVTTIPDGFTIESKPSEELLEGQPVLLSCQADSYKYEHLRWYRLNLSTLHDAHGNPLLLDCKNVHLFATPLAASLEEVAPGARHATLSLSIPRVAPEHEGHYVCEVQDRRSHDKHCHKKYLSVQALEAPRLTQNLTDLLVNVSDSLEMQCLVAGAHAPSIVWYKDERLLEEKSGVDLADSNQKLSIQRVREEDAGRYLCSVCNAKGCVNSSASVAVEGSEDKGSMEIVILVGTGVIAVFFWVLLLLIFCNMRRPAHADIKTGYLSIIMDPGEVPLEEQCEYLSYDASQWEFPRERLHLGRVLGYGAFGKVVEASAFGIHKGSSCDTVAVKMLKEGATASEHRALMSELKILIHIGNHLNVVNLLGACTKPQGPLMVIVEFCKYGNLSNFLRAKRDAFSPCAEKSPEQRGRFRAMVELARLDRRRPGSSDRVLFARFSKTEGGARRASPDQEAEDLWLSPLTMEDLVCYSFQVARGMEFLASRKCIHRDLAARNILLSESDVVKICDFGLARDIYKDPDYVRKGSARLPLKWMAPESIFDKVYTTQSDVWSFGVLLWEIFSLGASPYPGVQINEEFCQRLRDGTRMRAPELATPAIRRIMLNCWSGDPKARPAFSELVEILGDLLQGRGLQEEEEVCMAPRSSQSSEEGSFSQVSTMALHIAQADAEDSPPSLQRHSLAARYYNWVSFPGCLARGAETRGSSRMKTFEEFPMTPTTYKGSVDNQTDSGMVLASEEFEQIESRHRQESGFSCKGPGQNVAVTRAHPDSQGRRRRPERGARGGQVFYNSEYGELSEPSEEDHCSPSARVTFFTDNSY
# Description: (§1) Kinase assays were performed in 96-well FlashPlates™ from Perkin Elmer in a […]. […] The reaction cocktail contained 70 mM HEPES-NaOH, pH 7.5, 3 mM MnCl2, 3 μM Na3VO4, 1.2 mM DTT, 1 μM [γ-^33P]-ATP (approximately 6×10^5 cpm per well), protein kinase (variable amounts), and substrate (variable amounts). The reaction cocktails were incubated at 30° C. for 60 min. The reaction was stopped with 50 μL of 2% (v/v) H3PO4, and plates were aspirated and washed two times with 200 μL 0.9% (w/v) NaCl. ALL assays were performed with a BeckmanCoulter Biomek 2000/SL robotic system. Incorporation of ^33Pi (counting of “cpm”) was determined with a microplate scintillation counter.
# DAPK1 = DAPK1 (Homo sapiens (Human), UniProt P53355); test: Kinase selectivity profiling; assay type: biochemical
# DAPK1, sequence (P53355 whole entry, species assumed): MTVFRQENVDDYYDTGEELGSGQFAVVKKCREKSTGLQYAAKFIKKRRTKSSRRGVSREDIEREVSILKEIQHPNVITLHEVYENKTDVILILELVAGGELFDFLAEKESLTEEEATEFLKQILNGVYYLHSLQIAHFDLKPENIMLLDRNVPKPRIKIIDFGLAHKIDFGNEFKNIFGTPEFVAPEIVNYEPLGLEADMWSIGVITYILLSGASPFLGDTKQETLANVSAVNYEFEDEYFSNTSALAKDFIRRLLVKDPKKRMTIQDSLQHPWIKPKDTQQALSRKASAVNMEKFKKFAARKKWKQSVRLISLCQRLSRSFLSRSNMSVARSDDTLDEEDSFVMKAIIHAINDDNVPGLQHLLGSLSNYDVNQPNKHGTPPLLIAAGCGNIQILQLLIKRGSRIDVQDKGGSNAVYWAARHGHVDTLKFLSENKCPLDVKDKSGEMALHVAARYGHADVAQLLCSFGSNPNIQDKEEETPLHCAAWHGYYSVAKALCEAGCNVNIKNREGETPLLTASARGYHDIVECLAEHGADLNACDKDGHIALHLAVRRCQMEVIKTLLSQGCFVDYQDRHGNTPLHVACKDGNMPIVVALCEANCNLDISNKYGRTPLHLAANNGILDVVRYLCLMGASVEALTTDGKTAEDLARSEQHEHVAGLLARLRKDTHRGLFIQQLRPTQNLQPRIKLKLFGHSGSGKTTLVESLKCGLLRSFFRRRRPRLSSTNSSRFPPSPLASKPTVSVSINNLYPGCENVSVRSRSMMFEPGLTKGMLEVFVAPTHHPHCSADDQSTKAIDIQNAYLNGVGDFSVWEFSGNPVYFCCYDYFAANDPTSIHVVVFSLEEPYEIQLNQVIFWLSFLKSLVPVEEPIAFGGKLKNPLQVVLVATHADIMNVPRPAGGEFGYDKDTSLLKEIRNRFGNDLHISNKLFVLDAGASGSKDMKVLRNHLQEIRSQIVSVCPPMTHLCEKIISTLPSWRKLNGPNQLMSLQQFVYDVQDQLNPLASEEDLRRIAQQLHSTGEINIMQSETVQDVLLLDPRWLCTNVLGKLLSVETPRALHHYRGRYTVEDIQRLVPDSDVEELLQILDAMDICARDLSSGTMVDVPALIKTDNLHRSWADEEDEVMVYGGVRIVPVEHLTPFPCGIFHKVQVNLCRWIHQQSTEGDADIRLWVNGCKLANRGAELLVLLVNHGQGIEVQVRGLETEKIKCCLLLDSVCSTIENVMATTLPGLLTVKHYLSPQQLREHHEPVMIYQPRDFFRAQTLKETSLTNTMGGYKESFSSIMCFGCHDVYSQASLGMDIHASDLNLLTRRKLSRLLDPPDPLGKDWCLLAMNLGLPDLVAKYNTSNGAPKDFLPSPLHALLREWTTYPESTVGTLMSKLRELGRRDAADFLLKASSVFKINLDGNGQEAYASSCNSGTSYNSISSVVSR
# Description: as §1
# MCF10A cells = test: Cell growth study (SRB assay), MCF10A; assay type: cell-based; settings: 0.2% serum medium, four days
# Description: Either 4T1 cells or MCF10A cells were seeded in 96-well plate at 5×10^3 cells per well. […] After incubation for four days, cell viability was determined by SRB assay.
# [3] = system: bile duct-ligated (BDL) rats; test: Anti-fibrotic effect on bile duct-ligated liver fibrosis model; assay type: in vivo; settings: for Body weight / Organ weight Liver / Organ weight Liver/Body / Organ weight Spleen / Organ weight Spleen/Body: BDL rats, mean ± S.E.
# 4T1 cells = test: Matrigel invasion assay; assay type: cell-based; settings: TGF-β1 2 ng/mL, 20 h
# Description: The upper surface of Transwells (6.5 mm diameter, 8 μm pore size; […] After incubation for 20 h at 37° C. in 5% CO2, the cells remaining on the upper surface of the membrane were removed with a cotton swab, and DAPI-stained cells remaining on the bottom surface were observed using fluorescence microscopy. Average cell number per view field was obtained from 5 random fields.
# [4] = 5, 10, or 20 mg/kg orally five times per week for two weeks starting from day 7, Western blot
# [5] = 5 mg/kg orally three times per week for four weeks
# [6] = 10 mg/kg orally three times per week for four weeks
# [7] = 20 mg/kg orally three times per week for four weeks
# [8] = orally three times per week for four weeks, Example 2 5, 10, 20 mg/kg, Example 3 21.8, 43.6 mg/kg
# [9] = orally three times per week for four weeks, Western blot
structure (smiles),measurement,setting,value
"Cc1cccc(-c2[nH]c(CNc3ccccc3F)nc2-c2ccc3ncnn3c2)n1 [Example 2, N-((4-([1,2,4]triazolo[1,5-a]pyridin-6-yl)-5-(6-methylpyridin-2-yl)-1H-imidazol-2-yl)methyl)-2-fluoroaniline]",TGF-β1-induced Smad2/3 nuclear translocation,[1],suppressed
same,fibronectin in BLM-induced fibrotic lung,[2]; [4],suppressed
same,α-SMA in BLM-induced fibrotic lung,[2]; [4],suppressed
same,BLM-induced histological changes,"[2]; all dose levels tested (5, 10, 20 mg/kg orally), lung, H&E staining",greatly reduced
same,pIC50,VEGF-R3,6.59
same,inhibition at 1 µM,"DAPK1; read-out: % inhibition at 1 μM, 1 μM",5%
same,inhibition at 10 µM,"DAPK1; read-out: % inhibition at 10 μM, 10 μM",11%
same,MCF10A cell growth,MCF10A cells,slightly increased
same,Body weight,[3]; [5],324 ± 7.3 g
same,Organ weight Liver,[3]; [5],17.5 ± 1.82 g
same,Organ weight Liver/Body,[3]; [5],5.46 ± 0.62%
same,Organ weight Spleen,[3]; [5],2.00 ± 0.28 g
same,Organ weight Spleen/Body,[3]; [5],0.63 ± 0.09 %
same,Body weight,[3]; [6],312 ± 10.4 g
same,Organ weight Liver,[3]; [6],15.8 ± 1.88 g
same,Organ weight Liver/Body,[3]; [6],5.08 ± 0.60%
same,Organ weight Spleen,[3]; [6],1.57 ± 0.12 g
same,Organ weight Spleen/Body,[3]; [6],0.51 ± 0.05 %
same,Body weight,[3]; [7],312 ± 8.4 g
same,Organ weight Liver,[3]; [7],15.2 ± 1.80 g
same,Organ weight Liver/Body,[3]; [7],4.88 ± 0.63%
same,Organ weight Spleen,[3]; [7],1.50 ± 0.16 g
same,Organ weight Spleen/Body,[3]; [7],0.48 ± 0.05 %
same,BDL-induced histological change,"[3]; liver, H&E staining",greatly abolished
same,body weight loss in BDL rats,[3]; [8],recovered
same,organ (liver and spleen) weight in BDL rats,[3]; [8],decreased
same,serum ALT in BDL rats,[3]; [8],improved
same,serum AST in BDL rats,[3]; [8],improved
same,fibronectin in BDL rat liver,[3]; [9],suppressed
same,α-SMA in BDL rat liver,[3]; [9],suppressed
same,TGF-β1-induced cell invasion,4T1 cells,suppressed
